The nature of the data set: DSSTox (CPDBAS) Carcinogenic Potency Database Summary MultiCellCall Results. As to conditions: animal carcinogenicity bioassays, multi-cell call summary. The method, boiled down:
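Summary call drawn from chronic long-term cancer bioassays in rats, mice, hamsters, dogs and nonhuman primates, using the most positive result per sex-species. Score: multispecies=50, multisex=30, multisite=20, summed for combinations.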

The source made the active and inactive calls.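 Rule for the calls: active = tumour findings in long-term animal cancer tests in more than one sex, species or organ; inactive = no tumour finding and more than one negative test.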

For the compound `C=Cc1cccc(C)c1`, the outcome is “inactive; multisex inactive; multispecies inactive”.

`c1ccc(C2CO2)cc1` (stereo not drawn): the outcome is “active; multisex active; multispecies active”.

As to `Oc1ccc(O)cc1`, the outcome was “active; multisite active; multisex active; multispecies active”.

For the compound `CC(=O)CN(N=O)C(N)=O`, the outcome was “active; multisex active”.

In the case of `O1[As]2O[As]3O[As]1O[As](O2)O3`, the outcome was “inactive; multisex inactive”.

Consider `Nc1c(Cl)cc(Cl)cc1Cl`, for which the outcome was “active; multisite active”.

As for `NC(=O)Cc1cccc2ccccc12`, the outcome was “inactive; multisex inactive”.

For the compound `CC1=C(C)C(=O)C(C(CCCCCC(=O)O)c2ccccc2)=C(C)C1=O` (stereo not drawn), the outcome is “inactive; multisex inactive”.

Consider `N[C@@H](Cc1ccc(N(CCCl)CCCl)cc1)C(=O)O`, for which the outcome was “active; multisite active; multisex active; multispecies active”.

Take `OC[C@@H](O)[C@@H](O)[C@H](O)[C@H](O)CO`: the outcome is “inactive; multisex inactive; multispecies inactive”.

For `CC(CN1CC(=O)NC(=O)C1)N1CC(=O)NC(=O)C1` (stereo not drawn), the outcome was “active; multisite active; multispecies active”.

For `CCCCN(N)C=O`, the outcome is “active; multisite active; multisex active”.

As to `CCN(CC)C(=S)[S-].CCN(CC)C(=S)[S-].[Cd+2]`, the outcome is “inactive; multisex inactive”.

Regarding `Cc1nc(N)cc2[nH]c3ccccc3c12`, the outcome was “active; multisite active; multisex active; multispecies active”.

Take `Cc1[nH]cnc1CSCCN=C(NC#N)N(C)N=O`: the outcome is “inactive; multisex inactive; multispecies inactive”.

Consider `CN1CCC[C@H]1c1cccnc1`, for which the outcome was “inactive; multisex inactive”.

On to `CN(N)C=O`, for which the outcome was “active; multisite active; multisex active; multispecies active”.

With `O[C@H]([C@H](O)[C@@H](O)CBr)[C@H](O)CBr`, the outcome is “active; multisite active; multisex active; multispecies active”.

`NNC(N)=O`: the outcome was “active; multisite active; multisex active”.

Take `O=NN1CC=CCC1`: the outcome was “active; multisite active”.

For `O=C1O[C@H]([C@@H](O)CO)C(O)=C1O`, the outcome was “inactive; multisex inactive; multispecies inactive”.

`C=CC(OCC)OCC`: the outcome was “inactive; multisex inactive”.

For `O=NN1CCCCCCC1`, the outcome was “active; multisite active”.

In the case of `Oc1ccccc1O`, the outcome was “active; multisex active; multispecies active”.

Take `CCCCNC(N)=O`: the outcome is “inactive; multisex inactive; multispecies inactive”.

Consider `C[C@]12C/C(=C/O)C(=O)C[C@@H]1CC[C@@H]1[C@@H]2CC[C@@]2(C)[C@H]1CC[C@]2(C)O`, for which the outcome was “active; multisite active”.

On to `COc1ccc(N)cc1`, for which the outcome was “inactive; multisex inactive; multispecies inactive”.

For the compound `O=C(O)c1ccccc1-c1c2cc(I)c(=O)c(I)c-2oc2c(I)c(O)c(I)cc12`, the outcome was “inactive; multisex inactive; multispecies inactive”.

Regarding `CCN(N)C=O`, the outcome was “active; multisite active; multisex active”.

On to `Cc1ccc(OP(=O)(Oc2ccc(C)cc2)Oc2ccc(C)cc2)cc1`, for which the outcome is “inactive; multisex inactive; multispecies inactive”.

For `C=C(C)C(=O)OC`, the outcome is “inactive; multisex inactive; multispecies inactive”.

Take `ClC1C2(Cl)C3C4C5OC5C5C4C1(Cl)C(Cl)(C53)C2(Cl)Cl` (stereo not drawn): the outcome was “inactive; multisex inactive; multispecies inactive”.

For the compound `CC[C@H]1OC(=O)C[C@@H](O)[C@H](C)[C@@H](O[C@@H]2O[C@H](C)[C@@H](O[C@H]3C[C@@](C)(O)[C@@H](O)[C@H](C)O3)[C@H](N(C)C)[C@H]2O)[C@@H](CC=O)C[C@@H](C)C(=O)/C=C/C(C)=C/C1CO[C@@H]1O[C@H](C)[C@@H](O)[C@@H](OC)[C@H]1OC` (stereo partly drawn), the outcome was “inactive; multisex inactive”.

As for `Nc1nnc(-c2ccc([N+](=O)[O-])o2)s1`, the outcome was “active; multisite active”.

For `Clc1ccccc1Cl`, the outcome was “inactive; multisex inactive; multispecies inactive”.

Turning to `CCCCCl`, the outcome is “inactive; multisex inactive; multispecies inactive”.

Turning to `O=S1(=O)CCCO1`, the outcome is “active; multisite active; multisex active”.

On to `C1CCCNCCC1`, for which the outcome is “inactive; multisex inactive”.

As for `CC1(C)S[C@@H]2[C@H](NC(=O)[C@H](N)c3ccccc3)C(=O)N2[C@H]1C(=O)O`, the outcome was “inactive; multisex inactive; multispecies inactive”.

`C=Cc1ccccc1`: the outcome is “active; multisite active; multisex active; multispecies active”.

`CN=[N+](C)[O-]`: the outcome was “active; multisite active”.

Regarding `O=C(O)Cc1cccc2ccccc12`, the outcome is “inactive; multisex inactive”.

As to `O=S(=O)(Oc1ccc(Cl)cc1)c1ccc(Cl)cc1`, the outcome was “inactive; multisex inactive”.

For the compound `NC(N)=O`, the outcome is “inactive; multisex inactive; multispecies inactive”.

As for `O=S1(=O)CC=CC1`, the outcome was “inactive; multisex inactive; multispecies inactive”.

On to `CNC(=O)O/N=C(\SC)C(=O)N(C)C`, for which the outcome is “inactive; multisex inactive; multispecies inactive”.

Take `CCN(CC)C(=S)SSC(=S)N(CC)CC`: the outcome is “inactive; multisex inactive; multispecies inactive”.

Regarding `Cc1cccn2c1nc1ccc(N)nc12`, the outcome was “active; multisite active; multisex active; multispecies active”.

Regarding `CC(I)C1OCC(CO)O1` (stereo not drawn), the outcome is “active; multisite active; multisex active; multispecies active”.

For `CC1(C)S[C@@H]2[C@H](NC(=O)COc3ccccc3)C(=O)N2[C@H]1C(=O)O`, the outcome is “inactive; multisex inactive; multispecies inactive”.

Take `CCCCN(N)CCCC`: the outcome is “active; multisite active; multisex active”.

In the case of `NC(=O)c1cccnc1`, the outcome was “inactive; multisex inactive”.

As for `Cc1c([N+](=O)[O-])c(C)c([N+](=O)[O-])c(C(C)(C)C)c1[N+](=O)[O-]`, the outcome is “active; multisite active; multisex active”.

With `F`, the outcome is “inactive; multisex inactive; multispecies inactive”.

In the case of `CCCCN(CCCC)C(=S)[S-].CCCCN(CCCC)C(=S)[S-].[Ni+2]`, the outcome was “inactive; multisex inactive”.

Consider `Nc1ccc(-c2ccc(F)cc2)cc1`, for which the outcome was “active; multisex active”.

In the case of `Oc1c(Cl)cc(Cl)cc1Sc1cc(Cl)cc(Cl)c1O`, the outcome was “inactive; multisex inactive”.

As to `[N-]=[N+]=O`, the outcome was “inactive; multisex inactive”.

In the case of `COc1cc2c(c3c1c(=O)c1ccccc1n3C)C=CC(C)(C)O2`, the outcome is “active; multisite active; multisex active”.

Take `Nc1ccc(S(=O)(=O)c2ccc(N)cc2)cc1`: the outcome was “active; multisite active”.

Turning to `COc1cc2c(cc1N)oc1ccccc12`, the outcome is “active; multisite active; multisex active”.

`O=C1OC(=O)c2ccccc21`: the outcome was “inactive; multisex inactive; multispecies inactive”.

In the case of `COc1cc(CNC(=O)CCCC/C=C/C(C)C)ccc1O`, the outcome was “active; multisex active”.

As to `O=C(O)c1ccc(N=Nc2ccc(O)c(C(=O)O)c2)cc1`, the outcome was “inactive; multisex inactive; multispecies inactive”.

For `Nc1ccccc1C(=O)OC/C=C/c1ccccc1`, the outcome is “active; multisite active; multisex active; multispecies active”.

In the case of `Cc1ccc2c(c1)C(N1CCN(C)CC1)=Nc1ccccc1S2`, the outcome is “inactive; multisex inactive”.

As for `O=[N+]([O-])c1cccc2cccnc12`, the outcome was “active; multisex active”.

Regarding `CC(=O)Nc1nnc(-c2ccc([N+](=O)[O-])o2)s1`, the outcome was “active; multisite active; multispecies active”.

For `O=S(=O)(O)c1ccc(N=Nc2cc(S(=O)(=O)O)c3ccccc3c2O)c2ccccc12`, the outcome was “inactive; multisex inactive; multispecies inactive”.

In the case of `C/C=N/N(C)C=O`, the outcome is “active; multisite active; multisex active”.

Consider `Cc1cccc(C)c1NC(=O)CN1CCCC1=O`, for which the outcome is “inactive; multisex inactive; multispecies inactive”.

As to `CC(=O)NN`, the outcome was “active; multisex active”.

In the case of `ClCC(Br)CBr` (stereo not drawn), the outcome is “active; multisite active; multisex active; multispecies active”.

`COc1c(Cl)c(Cl)c([N+](=O)[O-])c(Cl)c1Cl`: the outcome was “inactive; multisex inactive; multispecies inactive”.

As to `CN(CC(O)CO)N=O` (stereo not drawn), the outcome was “active; multisite active; multispecies active”.

On to `CC(C(O)c1ccccc1)N(C)N=O` (stereo not drawn), for which the outcome was “active; multisite active”.

As to `CC(=O)OC[C@]12C[C@H](OC(=O)CC(C)C)C(C)=C[C@H]1O[C@@H]1[C@H](O)[C@@H](OC(C)=O)[C@@]2(C)C12CO2` (stereo partly drawn), the outcome is “active; multisite active”.

Turning to `BrCCBr`, the outcome is “active; multisite active; multisex active; multispecies active”.

Turning to `COC(=O)[C@H]1[C@H]2C[C@@H]3c4[nH]c5cc(OC)ccc5c4CCN3C[C@H]2C[C@@H](OC(=O)c2cc(OC)c(OC)c(OC)c2)[C@@H]1OC`, the outcome is “active; multisite active; multisex active; multispecies active”.

Regarding `CBr`, the outcome was “inactive; multisex inactive; multispecies inactive”.

For the compound `CCCCNN`, the outcome is “active; multisex active”.

As for `CCCCC/C=N/N(C)C=O`, the outcome was “active; multisite active; multisex active”.

`CC(C)NCC(O)COc1ccc(CC(N)=O)cc1` (stereo not drawn): the outcome was “inactive; multisex inactive”.

`CCOCCc1c(-c2ccccc2)nc(N)n2ncnc12`: the outcome is “active; multisite active; multisex active”.

For `CCCCCc1cc(O)c2c(c1)OC(C)(C)[C@@H]1CCC(C)=C[C@@H]21`, the outcome was “inactive; multisex inactive; multispecies inactive”.

On to `CCNc1nc(Cl)nc(NCC)n1`, for which the outcome was “inactive; multisex inactive”.

For the compound `CCN(CC(F)(F)F)N=O`, the outcome was “active; multisite active”.

As to `CC#N`, the outcome is “inactive; multisex inactive; multispecies inactive”.
